Test results reported in patent US11884659B1, “1-cyclopropyl-6-fluoro-4-oxo-7-(4-((5-(quinolin-2-ylmethyleneamino)-2-thioxo-1,3,4- thiadiazol-3(2H)-yl)methyl) piperazin-1-yl)-1,4-dihydroquinoline-3-carboxylic acid as an anti-inflammatory compound” (KING FAISAL UNIVERSITY, priority 2023, dated 2024).

Key:
BSA = BSA (Bos taurus, UniProt P02769); assay: Bovine Serum Albumin Assay (BSA), inhibition of heat-induced protein denaturation; conditions: 20, 40, 60, 80 and 100 μg/mL; 0.4% w/v BSA, pH 6.4, 72° C. for 10 minutes; turbidity at 660 nm
Sequence of BSA (P02769 25-607): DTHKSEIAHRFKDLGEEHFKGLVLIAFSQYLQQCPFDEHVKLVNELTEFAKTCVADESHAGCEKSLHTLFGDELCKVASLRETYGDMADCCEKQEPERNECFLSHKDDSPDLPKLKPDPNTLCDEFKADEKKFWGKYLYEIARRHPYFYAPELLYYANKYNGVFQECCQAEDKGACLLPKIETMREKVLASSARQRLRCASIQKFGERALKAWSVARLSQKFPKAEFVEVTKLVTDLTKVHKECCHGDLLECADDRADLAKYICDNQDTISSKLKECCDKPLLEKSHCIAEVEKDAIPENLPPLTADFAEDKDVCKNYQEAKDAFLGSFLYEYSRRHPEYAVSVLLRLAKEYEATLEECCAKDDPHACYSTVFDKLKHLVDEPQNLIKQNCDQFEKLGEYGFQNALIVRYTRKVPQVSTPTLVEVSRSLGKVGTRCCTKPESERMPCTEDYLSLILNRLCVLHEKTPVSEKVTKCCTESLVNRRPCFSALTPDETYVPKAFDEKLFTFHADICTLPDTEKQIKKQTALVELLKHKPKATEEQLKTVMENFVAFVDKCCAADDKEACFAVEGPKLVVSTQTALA
Method: Bovine Serum Albumin Assay (BSA)
In vitro-inflammatory activities of the tested samples were determined using a modified method of the BSA assay reported by Williams et al. BSA solution (0.4%, w/v) was prepared in Tris Buffered Saline. The pH was adjusted to 6.4 with glacial acetic acid. Different dilutions of 20, 40, 60, 80, and 100 μg/mL of 1-cyclopropyl-6-fluoro-4-oxo-7-(4-((5-(quinolin-2-ylmethyleneamino)-2-thioxo-1,3,4-thiadiazol-3(2H)-yl)methyl)piperazin-1-yl)-1,4-dihydroquinoline-3-carboxylic acid (IV) the stock solutions were added to test tubes containing 1 mL of 0.4%, w/v BSA buffer solution. Both negative (solvent) and positive (aspirin) controls were assayed in a similar manner. The solutions were then heated in a water bath at 72° C. for 10 minutes and cooled for 20 minutes under laboratory conditions. The turbidity of the solutions (level of protein precipitation) was measured at 660 nm in Spectrophotometer (V-770 UV-Visible/NIR Spectrophotometer). The percentage inhibition of precipitation (protein denaturation) was determined relative to the negative control using the following equation:
[formula] [formula] Anti-Inflammatory Activity

SMILES: O=C(O)c1cn(C2CC2)c2cc(N3CCN(Cn4nc(/N=C/c5ccc6ccccc6n5)sc4=S)CC3)c(F)cc2c1=O [IV, 1-cyclopropyl-6-fluoro-4-oxo-7-(4-((5-(quinolin-2-ylmethyleneamino)-2-thioxo-1,3,4-thiadiazol-3(2H)-yl)methyl)piperazin-1-yl)-1,4-dihydroquinoline-3-carboxylic acid]
- in vitro anti-inflammatory activity (inhibition of protein denaturation) (BSA): considerable anti-inflammatory effect
- melting point: 232 to 235 °C
